≈ marks a conversion by molar mass, not a printed value. Read-outs that look alike come from different tables or passages of the source.
Legend:
HepDE19 cells = assay: Cytotoxicity in HepDE19 cells (CCK-8) and selectivity index; type: cell-based; details: CC50 (HepDE19) value / EC50 (HepG2.2.15) value
Procedure, shortened: (§1)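 HepDE19 cells (DMEM-F12, 10% FBS) were treated with compound for five days, then given CCK-8 for 2 h at 37 °C and read at OD450 and OD630. CC50 is the concentration killing 50% of host cells. Selectivity index is CC50/EC50.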

[1] = as above; type: cell-based; details: human, HepDE19 cells; CCK-8 cell viability; five days after treatment
Procedure, shortened: as §1

[2] = Human microsomal metabolic stability; type: in vitro ADME; details: human microsomes 0.5 mg/mL, 1 μM test compound, NADPH, 37° C., pH 7.4, 0-30 minutes
Procedure, shortened: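 1 μM compound with 0.5 mg/mL human liver microsomal protein in 100 mM phosphate pH 7.4 at 37° C, started with 1 mM NADPH or a NADPH-regenerating system. Sampled at 0–30 min, quenched in cold methanol with tolbutamide internal standard; remaining parent quantified by LC-MS/MS.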

HBV = assay: Anti-HBV activity in vitro, HepG2.2.15 cells, extracellular HBV DNA by qPCR; type: cell-based
Procedure, shortened: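 Extracellular HBV DNA in culture supernatant was measured by qPCR after nucleic acid extraction. The supernatant came from constitutively replicating HepG2.2.15 cells exposed for five days to half-log-diluted compounds, with DMSO at 0.5% final. Cells had been plated overnight at 37 °C beforehand.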

CYP3A4 = assay: Cytochrome P450 induction screening assay, mRNA induction in human cryopreserved hepatocytes; type: in vitro ADME; details: CYP3A4 mRNA relative induction, 24 hours, test compound up to 10 μM
Protocol: Human cryopreserved hepatocytes (Life Technologies, Carlsbad, USA) were thawed and cultured in collagen I coated 96-well plates with a density of 52,000 cells/well. After attachment, medium was changed and cells were pre-cultured overnight in hepatocyte maintenance medium (HMM; Lonza, Switzerland).
Test compounds were dosed to the cells next morning at an indicated concentration (up to 10 μM) in HMM culture media containing gentamycin and a constant 0.1% DMSO. Similarly, dilutions of the positive inducer compounds omeprazole (prototypical inducer of human CYP1A2; final concentrations: 1 and 10 μM), phenobarbital (prototypical inducer of human CYP2B6; final concentrations: 100 and 1000 μM) and rifampicin (prototypical inducer of human CYP3A4; final concentrations: 1 and 10 μM) were prepared from 1000 fold DMSO stock solutions in HMM containing gentamycin. Medium change was then performed and cells were exposed for 24 hours to test compounds, positive inducer compounds, or vehicle (0.1% DMSO), respectively.
At the end of the compound exposure period, medium was removed and cells lysed using 100 μL/well MagNA Pure LC RNA isolation tissue lysis buffer (Roche Diagnostics AG, Rotkreuz, Switzerland). Plates were then sealed and frozen at −80° C. until further workup.
mRNA isolation was performed using the MagNA Pure 96 system (Roche Diagnostics AG, Rotkreuz, Switzerland) and the respective cellular RNA large volume kit (Roche Diagnostics AG, Rotkreuz, Switzerland) from thawed samples diluted 1:1 with PBS. The volume of the cell lysis and an elution volume of 100 μL were used. 20 μl of the resulting mRNA suspension was then used for reverse transcription using 20 μl of the transcript or first stand cDNA synthesis kit (Roche prime Supply, Mannheim, Germany). The resulting cDNA was diluted with 40 μl of H2O before using for qRT-PCR. qRT-PCR was performed by using the forward and the reverse primer, the corresponding UPL (all from Microsynth, Balgach, Switzerland) and the Taqman Fast advanced master mix (Applied Biosystems), on an ABI 7900 machine (Applied Biosystems).
qRT-PCR Ct-values for the respective P450s were put into relation to the Ct-value of RN18S1 (microsynth, Balgach, Switzerland) of the same sample. Doing so, a respective Δct-value was calculated. Using the average of all Δct-values for the vehicle control samples, a ΔΔct-value was calculated for each sample (ΔΔct-value(sample)=Δct-value(sample)−average of Δct-value of all vehicle controls). The fold induction of the respective sample was calculated as 2^(−ΔΔct). The individual fold induction values were then averaged per treatment condition (usually n=3 biological replicates).
Relative induction values to the respective positive inducer compound condition (10 μM omeprazole for CYP1A2; 1000 μM Phenobarbital for CYP2B6; 10 μM rifampicin for CYP3A4) were then calculated from the fold induction values as follows: Relative induction (%)=100×(T−V)/(P−V)

Lysa solubility = type: physicochemical; details: 0.05 M phosphate buffer (pH 6.5); for solubility thermodynamic: phosphate buffer, pH 6.5, aqueous buffer, thermodynamic from solid
Procedure, shortened: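 Duplicate samples dried from 10 mM DMSO stocks, taken up in 0.05 M phosphate buffer pH 6.5, stirred 1 h, shaken 2 h and left overnight. Filtrate and 1/10 dilution quantified by direct UV or HPLC-UV, in μg/mL; above 80% of the calculated maximum, reported as greater than that value.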

[3] = Hepatitis B virus, HepG2.2.15, 120 h, HepG2.2.15 cells, HBV replication inhibited by 50%, extracellular HBV DNA by qPCR, five days after compound treatment, read-out: EC50

SMILES | Selectivity index (CC50/EC50) (HepDE19 cells) | CC50 at 5 days [1] [µM] | Human Microsomal Clearance [2] [mL/min/kg] | EC50 (HBV; [3]) [nM] | % of Positive control (10 μM Rifampicin) (CYP3A4) [%] | solubility thermodynamic (Lysa solubility) [µg/mL] | EC50 (HBV; HepG2.2.15 cells, HBV replication inhibited by 50%, extracellular HBV DNA by qPCR, five days after compound treatment, read-out: EC50) [nM] | Lysa (Lysa solubility) [µg/mL] | EC50 (HBV; Hepatitis B virus, HepG2.2.15, 120 h) [nM]
CCOC(=O)C1=C(CN2CCN3C(=O)N(C(C)(C)C)C[C@@H]3[C@H]2C(=O)O)NC(c2nccs2)=N[C@H]1c1cccc(F)c1Cl (single isomer, unassigned) [Example 87B] | >100000 | > 100 | 5.0 | 1 | 4.0 |  |  |  | 
CCOC(=O)C1=C(CN2CCN3C(=O)N(CC(C)C(=O)O)C[C@@H]3C2)NC(c2nccs2)=N[C@H]1c1cccc(F)c1Cl (stereo partly drawn) [Example 21, 3-[(8aS)-7-[[(4R)-4-(2-chloro-3-fluoro-phenyl)-5-ethoxycarbonyl-2-thiazol-2-yl-1,4-dihydropyrimidin-6-yl]methyl]-3-oxo-5,6,8,8a-tetrahydro-1H-imidazo[1,5-a]pyrazin-2-yl]-2-methyl-propanoic acid] | >6211 | > 100 | 2.7 | 16 | 2.4 | > 786 |  |  | 
CCOC(=O)C1=C(CN2CCN3C(=O)N(C4CCC(C(=O)O)C4)C[C@@H]3C2)NC(c2nccs2)=N[C@H]1c1cccc(F)c1Cl (mixture of isomers) [Example 62, (R)-6-[(S)-2-((1R,3S)-3-Carboxy-cyclopentyl)-3-oxo-hexahydro-imidazo[1,5-a]pyrazin-7-ylmethyl]-4-(2-chloro-3-fluoro-phenyl)-2-thiazol-2-yl-1,4-dihydro-pyrimidine-5-carboxylic acid ethyl ester and (R)-6-[(S)-2-((1S,3R)-3-Carboxy-cyclopentyl)-3-oxo-hexahydro-imidazo[1,5-a]pyrazin-7-ylmethyl]-4-(2-chloro-3-fluoro-phenyl)-2-thiazol-2-yl-1,4-dihydro-pyrimidine-5-carboxylic acid ethyl ester] | >16667 | > 100 | 1.7 | 6 | 0 | 374 |  |  | 
CCOC(=O)C1=C(CN2CCN3C(=O)N(CC4(C(=O)O)CC4)C[C@@H]3C2)NC(c2nccs2)=N[C@H]1c1cccc(F)c1Cl [Example 36, 1-[[(8aS)-7-[[(4R)-4-(2-chloro-3-fluoro-phenyl)-5-ethoxycarbonyl-2-thiazol-2-yl-1,4-dihydropyrimidin-6-yl]methyl]-3-oxo-5,6,8,8a-tetrahydro-1H-imidazo[1,5-a]pyrazin-2-yl]methyl]cyclopropanecarboxylic acid] | >18181 | > 100 | 4.4 | 6 | 6 | 485 (≈ 786 µM) |  |  | 
COC(=O)C1=C(CN2CCN3C(=O)N(C(C)(C)C)C[C@@H]3[C@H]2C(=O)O)NC(c2nccs2)=N[C@H]1c1ccc(F)cc1Cl (single isomer, unassigned) [Example 86B] | >25000 | > 100 | 4.7 | 4 | 11 | > 740 |  |  | 
COC(=O)C1=C(CN2CCN3C(=O)N(C4CCC(C(=O)O)CC4)C[C@@H]3C2)NC(c2nccs2)=N[C@H]1c1ccc(F)cc1Cl (stereo partly drawn) [Example 73, 4-[(8aS)-7-[[(4R)-4-(2-chloro-4-fluoro-phenyl)-5-methoxycarbonyl-2-thiazol-2-yl-1,4-dihydropyrimidin-6-yl]methyl]-3-oxo-5,6,8,8a-tetrahydro-1H-imidazo[1,5-a]pyrazin-2-yl]cyclohexanecarboxylic acid] | 7778 | 70 | 8.1 |  | 0 |  | 9 | 564 | 
COC(=O)C1=C(CN2CCN3C(=O)N(CC(C)(C)C(=O)O)C[C@@H]3C2)NC(c2nccs2)=N[C@H]1c1ccc(F)cc1Cl [Example 42, 3-[(8aS)-7-[[(4R)-4-(2-chloro-4-fluoro-phenyl)-5-methoxycarbonyl-2-thiazol-2-yl-1,4-dihydropyrimidin-6-yl]methyl]-3-oxo-5,6,8,8a-tetrahydro-1H-imidazo[1,5-a]pyrazin-2-yl]-2,2-dimethyl-propanoic acid] | >15625 | > 100 | 2.0 | 6 | 0.6 | > 785 |  |  | 
CCOC(=O)C1=C(CN2CCN3C(=O)N(C4CC4)C[C@@H]3[C@H]2C(=O)O)NC(c2nccs2)=N[C@H]1c1cccc(F)c1Cl (single isomer, unassigned) [Example 82B] | >50000 | > 100 | 2.7 |  | 6 |  |  |  | 2
COC(=O)C1=C(CN2CCN3C(=O)N(CC(C)(C)CC(=O)O)C[C@@H]3C2)NC(c2nccs2)=N[C@H]1c1ccc(F)cc1Cl [Example 55, 4-[(8aS)-7-[[(4R)-4-(2-chloro-4-fluoro-phenyl)-5-methoxycarbonyl-2-thiazol-2-yl-1,4-dihydropyrimidin-6-yl]methyl]-3-oxo-5,6,8,8a-tetrahydro-1H-imidazo[1,5-a]pyrazin-2-yl]-3,3-dimethyl-butanoic acid] | >20000 | > 100 |  | 5 | 0.1 | 470 (≈ 759 µM) |  |  | 

Reference: patent US9233978B2, “6-fused heteroaryldihydropyrimidines for the treatment and prophylaxis of hepatitis B virus infection” (Hoffmann-La Roche Inc., priority 2014, dated 2016)
